Test results: article PMC6960228, “Ethoxysanguinarine, a Novel Direct Activator of AMP-Activated Protein Kinase, Induces Autophagy and Exhibits Therapeutic Potential in Breast Cancer Cells” (Frontiers in Pharmacology, 2020)
Read-outs that look alike come from different tables or passages of the source.

What was measured:
[1] = system: AMPKα; experiment: Streptavidin agarose affinity assay; type: binding, human; settings: Bio-Eth (4 μM) with or without Eth (12 μM), 3 h
Protocol: Cell pellets were lysed and the supernatant collection was incubated with indicated antibodies overnight at 4°C, after which protein A/G Plus beads (Santa Cruz Biotechnology) were added and incubated at 4°C for 4 h. The beads were washed 4 times in NETN buffer (1% NP-40, 2 mM EDTA, 40 mM Tris-HCl, 137 mM NaCl, pH 7.4), resuspended in SDS-PAGE loading buffer and boiled for 5 min. For streptavidin agarose affinity assay, cells upon Bio-Eth were lysed; the lysates were incubated with streptavidin agarose, washed and boiled in SDS-PAGE loading buffer. […] Western blot assays were performed.
Figure 4 Eth is a direct activator of AMPK. (A): MCF-7, MDA-MB-231, or MDA-MB-436 cells were treated with increasing concentrations of Eth for 24 h, and AMPK activity assay was performed. (B): The binding mode of Eth docked into AMPK. (C): The binding mode of Eth docked into AMPK. α subunit is green, β subunit is cyan, γ subunit is magenta and Eth is gold. (D): Details of the binding site of Eth in the ADaM site of AMPK. The main residues involved in drug interactions are shown as labeled green sticks. α subunit is green, β subunit is cyan. The pSER-108 was shown in stick and colored by gold. (E) The interaction pattern of Eth with the residues. […] (H): Viability of MCF-7, MDA-MB-231 or MDA-MB-436 cells exposed to Biotin-Eth as determined by MTT assay. […]

[2] = system: MCF-7 xenografted and MDA-MB-231 xenografted murine models; experiment: Xenograft studies; type: in vivo, nude mice
Protocol: (§1) Female nude immunodeficient mice (nu/nu) (weighing ~16 g, 5-week-old) were purchased from Hunan SJA Laboratory Animal Co., Ltd. (Changsha, China), and maintained under specific pathogen-free conditions. Mice were given free access to sterile water and to a standard diet, and maintained under controlled conditions of temperature (22–24°C), humidity (40–70%), and light (12 h light-dark cycles). The present study was approved by Animal Ethics Committee of Hubei University of Medicine. The mice were subcutaneously injected with human BC MDA-MB-231 cells (5 × 10^6 cells which were suspended in 100 μL DMEM) into the right flank of each mouse. Treatments started when tumors reached a palpable size (0.5 cm in diameter). Mice were randomly divided into the following two groups: control group (vehicle; 0.8% DMSO, 12% cremophor, and 8% ethanol in normal saline; n = 8) and Eth-treated group (intraperitoneal injection of […] Eth; n = 8). The mice were treated 5 times per week for a total of […]. Caliper measurements of the longest perpendicular tumor diameters were performed twice a week to estimate the tumor volume, using the following formula: 4π/3 × (width/2)^2 × (length/2), representing the three-dimensional volume of an ellipse. Animals were sacrificed when tumors reached 1.5 cm or if the mice appeared moribund to prevent unnecessary morbidity to the mice.
To determine the anti-tumor effect of Eth on BC in vivo, MCF-7 xenografted and MDA-MB-231 xenografted murine models were generated. Once the tumors grew to a measurable size, each group was administered with vehicle (MCF-7 = 8, MDA-MB-231 = 8) or Eth (MCF-7 = 8; MDA-MB-231 = 8) i.p. at 2 mg/kg four times a week for 4 weeks. The tumor-bearing mice were humanely killed when their tumors reached 1.5 cm in diameter or when paralysis or major compromise in their quality of life occurred. […]
(A–B): Murine models were treated with vehicle, Eth (2 mg/kg) and the tumor volumes were calculated twice a week. **P < 0.01. […] (H–I): The expressions of LC3-II, AMPKα, and pAMPKα in xenograft tumor tissues were analyzed by western blot. […]

[3] = Body weight of xenografted mice; type: in vivo, nude mice; settings: i.p. 2 mg/kg four times a week for 4 weeks
Protocol: as §1, with “mice. […]” for “mice.”

[4] = Pharmacokinetic study; type: in vivo, Sprague-Dawley rats; settings: rat; for MRT last: read-out: MRT0-t
Protocol: Eleven Sprague–Dawley rats (220–250 g, female) were bought from Hunan SJA Laboratory Animal Co., Ltd. (Changsha, China), and maintained and monitored in a specific pathogen-free environment. They were fasted overnight before the experiments. All rat studies were conducted according to protocols approved by the Animal Ethics Committee of Hubei University of Medicine. Six rats were administered with Eth (2 mg/kg) by intravenous injection, and the other five rats were inoculated with Eth (15 mg/kg) by intragastric injection. Blood samples of […] were collected from the orbit at the time points indicated. The plasma concentrations of Eth were determined by […] (Figure S1). The pharmacokinetic parameters were obtained from the pharmacokinetic software DAS 2.0 (Drug and Statistics Version 2.0).
We then tested the pharmacokinetic features of Eth in Sprague-Dawley rats. To do this, six rats were administered Eth (2 mg/kg) by intravenous (i.v.) injection, and another five rats were inoculated with Eth (15 mg/kg) by intragastric (i.g.) injection. the mean plasma concentration-time profiles are shown in Figures 6J, K, and the main pharmacokinetic parameters are summarized in Table 3. […] Therefore, Eth could be a potential therapeutic agent against BC.

[5] = female, Sprague-Dawley, plasma, iv, i.v. (2 mg/kg)
[6] = female, Sprague-Dawley, plasma, po, i.g. (15 mg/kg)

Q: Which “binding of Bio-Eth to AMPKα in presence of unlabeled Eth” value [1] does the source give for `CCOC1c2c(ccc3c2OCO3)-c2ccc3cc4c(cc3c2N1C)OCO4` (stereo not shown) [Eth, Ethoxysanguinarine] here?
A: significantly attenuated by unlabeled Eth

Q: And the tumor weight ([2]; i.p. 2 mg/kg four times a week for 4 weeks)?
A: significantly reduced the tumor weight

Q: And the “tumor growth compared with vehicle control” value ([2]; i.p. 2 mg/kg four times a week for 4 weeks, P < 0.05)?
A: efficiently repressed tumor growth

Q: What about the “expression levels of pAMPK and LC-3II in tumor specimens” value ([2]; western blot of xenograft tumors) of the same molecule?
A: upregulated

Q: What about the “body weight of the mice” value [3] of the same molecule?
A: did not significantly reduce the body weight

Q: What about the AUC(0-t) [4, 5] of the same molecule?
A: 3640 ± 1560 ng·h/mL

Q: And the Cmax [4, 5]?
A: 3580 ± 756 ng/mL

Q: What about the half-life [4, 5] of the same molecule?
A: 3.54 ± 1.79 h

Q: And the clearance ([4]; female, Sprague-Dawley, plasma, iv, i.v. (2 mg/kg), read-out: CLz (converted))?
A: 9.32 mL/min/kg

Q: What about the MRT last [4, 5] of the same molecule?
A: 2.18 ± 0.462 h

Q: What about the AUC(0-t) [4, 6] of the same molecule?
A: 3390 ± 592 ng·h/mL

Q: And the Cmax [4, 6]?
A: 498 ± 110 ng/mL

Q: And the half-life [4, 6]?
A: 4.05 ± 1.58 h

Q: What about the MRT last [4, 6] of the same molecule?
A: 7.03 ± 1.01 h

Q: What about the Tmax ([4]; female, Sprague-Dawley, plasma, iv, 2 mg/kg, i.v. (2 mg/kg), read-out: Tmax) of the same molecule?
A: 0.083 h

Q: What about the Tmax ([4]; female, Sprague-Dawley, plasma, iv, 2 mg/kg, i.v. (2 mg/kg), read-out: time of peak plasma concentration (converted)) of the same molecule?
A: 0.033 h

Q: What about the Tmax ([4]; female, Sprague-Dawley, plasma, po, 15 mg/kg, i.g. (15 mg/kg), read-out: Tmax) of the same molecule?
A: 2 h

Q: What about the BA ([4]; i.g. (15 mg/kg)) of the same molecule?
A: 12.43%

Q: And the CLz ([4]; i.g. (15 mg/kg))?
A: 73.63 ± 14.9 mL/min/kg
